Measurements: patent US11890318B2, “Methods and compositions for modulating appetite and intake of sodium” (California Institute of Technology, priority 2019, dated 2024)
“Also recorded” adds a separate entry of the source.

How the values were obtained:
[1] = test system: pre-LC^PDYN neurons expressing hM4Di; experiment: Slice electrophysiology, chemogenetic (hM4Di) inhibition by CNO; type: cell-based; settings: AAV-DIO-hM4Di-mCherry; 10 μM CNO puffed 10 sec; 2 mice; FIG. 8E
Protocol: 250-μm coronal slices were obtained using a vibratome (VT-1000s, Leica) in ice-cold sucrose-aCSF (artificial cerebrospinal fluid) solution (Sucrose 213, KCl 2.5, NaH2PO4 1.2, NaHCO3 25, glucose 10, MgSO4 7, CaCl2 1, in mM at pH 7.3), and then incubated in HEPES-holding aCSF (NaCl 92, KCl 2.5, NaH2PO4 1.2, NaHCO3 30, HEPES 20, glucose 25, Na-ascorbate 5, thiourea 2, Na-pyruvate 3, MgSO4 2, CaCl2 2, in mM at pH 7.3-7.4). Slices were recovered at 34.5° C. for 45 min and then held at room temperature until use.
For patch-clamp recording, slices were placed in a recording chamber perfused with aCSF (NaCl 124, KCl 2.5, NaH2PO4 1.2, NaHCO3 25, glucose 10, MgSO4 1, CaCl2 2, in mM, at pH 7.3) on an upright microscope (Examiner.D1, Zeiss). Whole-cell recordings were achieved using glass pipettes (5-8 MΩ) filled with intracellular solution (for DREADD and iC++ experiments, K-gluconate 145, NaCl 2, KCl 4, HEPES 10, EGTA 0.2, Mg-ATP 4, Na-GTP 0.3; for GABAergic postsynaptic currents, CsCl 145, NaCl 2, HEPES 10, EGTA 0.2, QX-314 bromide 5, Mg-ATP 4, Na-GTP 0.3, in mM at pH 7.25; for glutamatergic postsynaptic currents, Cs(CH3)SO3 145, NaCl 2, HEPES 10, EGTA 0.2, QX-314 bromide 5, Mg-ATP 4, Na-GTP 0.3, in mM, at pH 7.25). Electrical signals were filtered at 3 k Hz with Axon MultiClamp 700B (Molecular Devices) and collected at 20 kHz with Axon Digidata 1550A (Molecular Devices). […]

pre-LC^PDYN neurons [2] = experiment: Chemogenetic manipulation, sodium and water consumption; type: in vivo, mice; settings: CNO 10 mg/kg intraperitoneal
Text: For ChR2 photostimulation. 473 nm laser pulses (20 ms, 20 Hz) were delivered via an optic cable (MFP-FC-ZF, Doric Lenses) using a pulse generator (Sapphire 9200 from Quantum composers or SYS-A310 from WPI). The laser intensity was maintained at 5-10 mW at the tip of the fiber. Unless otherwise noted, photostimulation was delivered for 1 s at 3 s intervals throughout the behavior session. For iC++ photoinhibition, 473 nm laser was continuously turned on throughout the session at 3 mW at the tip of the fiber. For chemogenetic manipulation (FIGS. 8E-H), CNO (Sigma, 10 mg/kg) or vehicle (water) was administered intraperitoneal 20 min before the sodium consumption experiment.
To induce sodium appetite, animals were injected with furosemide (Sigma) at a dose of 50 mg/kg body weight. Low sodium diet (TD. 90228, ENVIGO) was provided for 2 days after the injection of furosemide. For water-restriction experiments, animals were kept in their home cage without water, and were provided with 1 mL of water daily. For food restriction experiments, animals were deprived of food up to 24 hrs with normal water provided. All assays were performed in a custom gustometer (Dialog Instruments) or Biodaq monitoring system (Research Diets Inc). All sodium-depleted animals were trained in a gustometer before experiments. Animals which licked at least 150 licks during the 30-min session were used for further behavioral assays. After every sodium-depletion round, animals were recovered for at least 4 days with the normal diet.
(§1) For appetite specificity assay (FIG. 7C), three different solutions were presented to animals during the same session, and their preference was measured as a lick number. For each trial, 20 sec of photostimulation was delivered to the animal with an inter-trial-interval of 60 secs. Water, 0.5 M KCl, 0.5 M NaCl, or 0.5 M NaCl+30 μM amiloride was used for preference assay. For sodium consumption assay (FIGS. 1E, 1G, and 1H), animals were given ad libitum access to 0.5 M NaCl, water or an empty spout for either 7.5 or 30 min.

pre-LC^PDYN neurons [3] = experiment: Fibre photometry recording of GCaMP6s signals from pre-LC^PDYN neurons during ingestion or IG infusion; type: in vivo, mice
Protocol: For photometry recording, animals were given either 5- or 10-minutes access to stimuli. To examine sodium specific responses of pre-LC^PDYN neurons (FIGS. 3D, 3E), animals were presented with three solutions during the session. First, animals were given 5 min access to 0.5 M KCl (FIG. 3D) or 0.5 M NaCl+0.1 mM amiloride (FIG. 3E). Then animals had 5 min access to water. Finally, animals were given 5 min access to 0.5 M NaCl. The interval between trials was 5 min. In FIG. 4B, 0.5 M NaCl, deionized water, or glucose solution (5 M) was infused via an intragastric catheter. Solutions were delivered at 0.1 ml/min for 5 min (water and sodium) or 10 min (food) using an infusion syringe pump (NE-300, New Era Pump Systems Inc). 10 min after gastric infusion, animals were given access to nutrients and their consumption was quantified for 10 min (for water and 0.5 M NaCl), or 30 min (for normal chow). Either air infusion (for water), or water infusion (for sodium and food) was used as a control stimulus. In FIG. 4D, either 0.15 M NaCl, water, or air was infused at a rate of 0.1 ml/min while recording the neural activity by photometry. For control, oral ingestion (FIG. 4C), the same set of animals were given access to 0.15 M NaCl. For all photometry assays, animals were acclimatized for 10-15 min in the chamber before stimuli were presented. Bulk fluorescence signals were collected using fibre photometry as previously described. Briefly, data were extracted and subjected to a low-pass filter at 1.8 Hz. A linear function was used to scale up the 405-nm channel signal to the 490-nm channel signal to obtain the fitted 405-nm signal. The resultant ΔF/F was calculated as (raw 490 nm signal−fitted 405 nm signal)/(fitted 405 nm signal). ΔF/F was then time-binned by a factor of 2.5 times the sampling frequency and down-sampled to 10 Hz. For all bouts, the mean fluorescence for 5 min before the first lick was calculated and subtracted from the entire session. The licks from the lickometer were simultaneously recorded. The area under the curve (AUC) was quantified by integrating the baseline-subtracted fluorescence signals for 30 sec after the start of the bout. For FIG. 10D, the data were quantified as ΔF/F change between 1 sec prior to, and at the first lick (0 sec). For IG infusion experiments (FIG. 4E), AUC was quantified during the 5-min of infusion.

[4] = test system: Pre-LC^PDYN-stimulated animals; experiment: Preference assay (appetite specificity) under photostimulation of pre-LC^PDYN neurons; type: in vivo, mice; settings: photostimulated animals; 0.5 M NaCl+30 μM amiloride; FIG. 7C
Protocol: as §1

dBNST→pre-LC neurons = experiment: Optical recording of calcium responses of dBNST→pre-LC neurons; type: in vivo, mice; settings: sodium-depleted conditions; FIG. 5F
Protocol: For all photometry assays, animals were acclimatized for 10-15 min in the chamber before stimuli were presented. Bulk fluorescence signals were collected using fibre photometry as previously described. Briefly, data were extracted and subjected to a low-pass filter at 1.8 Hz. A linear function was used to scale up the 405-nm channel signal to the 490-nm channel signal to obtain the fitted 405-nm signal. The resultant ΔF/F was calculated as (raw 490 nm signal−fitted 405 nm signal)/(fitted 405 nm signal). ΔF/F was then time-binned by a factor of 2.5 times the sampling frequency and down-sampled to 10 Hz. For all bouts, the mean fluorescence for 5 min before the first lick was calculated and subtracted from the entire session. The licks from the lickometer were simultaneously recorded. The area under the curve (AUC) was quantified by integrating the baseline-subtracted fluorescence signals for 30 sec after the start of the bout. For FIG. 10D, the data were quantified as ΔF/F change between 1 sec prior to, and at the first lick (0 sec). For IG infusion experiments (FIG. 4E), AUC was quantified during the 5-min of infusion.
To label the dBNST→pre-LC circuit, 100 nl of CAV-Cre was injected into the pre-LC followed by the injection of AAV5-DIO-mCherry or AAV1-flex-GCaMP6S into the dBNST. These animals were used for experiments at least two weeks after the injection.

[5] = Intragastric infusion and subsequent ingestive behavior; type: in vivo; settings: sodium-depleted mice
Protocol: In FIG. 4B, 0.5 M NaCl, deionized water, or glucose solution (5 M) was infused via an intragastric catheter. Solutions were delivered at 0.1 ml/min for 5 min (water and sodium) or 10 min (food) using an infusion syringe pump (NE-300, New Era Pump Systems Inc). 10 min after gastric infusion, animals were given access to nutrients and their consumption was quantified for 10 min (for water and 0.5 M NaCl), or 30 min (for normal chow). Either air infusion (for water), or water infusion (for sodium and food) was used as a control stimulus. In FIG. 4D, either 0.15 M NaCl, water, or air was infused at a rate of 0.1 ml/min while recording the neural activity by photometry. For control, oral ingestion (FIG. 4C), the same set of animals were given access to 0.15 M NaCl.

C[N+]1([O-])CCN(C2=Nc3cc(Cl)ccc3Nc3ccccc32)CC1 [CNO, clozapine N-oxide]
pre-LC^PDYN neurons inhibited by CNO [1]: 13 out of 14 | thirst or sodium appetite in control animals (pre-LC^PDYN neurons [2]; AAV-DIO-mCherry injected animals, FIG. 8H): did not affect thirst or sodium appetite | thirst under chemogenetic inhibition (pre-LC^PDYN neurons [2]; hM4Di, FIG. 8G): did not affect thirst | sodium intake under chemogenetic inhibition (pre-LC^PDYN neurons [2]; hM4Di, sodium-depleted animals, FIG. 8G): reduced sodium intake

[Cl-].[K+] [KCl]
pre-LC^PDYN neuron activity upon ingestion of KCl (pre-LC^PDYN neurons [3]; sodium-depleted animals, 0.5 M KCl, FIG. 3D): no suppression was observed; also recorded: did not affect

N=C(N)NC(=O)c1nc(Cl)c(N)nc1N [amiloride, reference compound]
NaCl consumption in the presence of amiloride [4]: reduced | NaCl-induced suppression of pre-LC^PDYN neurons with amiloride (pre-LC^PDYN neurons [3]; sodium-depleted animals, 0.5 M NaCl+0.1 mM amiloride, FIG. 3E): fully abolished; also recorded: eliminated inhibition | responses of dBNST→pre-LC neurons upon NaCl intake with amiloride (dBNST→pre-LC neurons): strongly inhibited

[Cl-].[Na+] [NaCl]
subsequent sodium ingestion after gastric preloading of NaCl ([5]; IG 0.5 M NaCl, 0.1 ml/min for 5 min, FIG. 4B left): did not affect | appetite reduction after a long period of IG infusion ([5]; IG NaCl, after 2 hrs): 41.3±6.0% | sodium appetite after oral NaCl contact ([5]; oral, FIG. 4B left): quickly quenched the appetite | pre-LC^PDYN neuron activity, low concentration of NaCl (pre-LC^PDYN neurons [3]; 0.06 M NaCl, FIG. 10B): exhibited inhibitory effects | pre-LC^PDYN neuron activity after brief NaCl intake (pre-LC^PDYN neurons [3]; NaCl intake for 1 sec, FIG. 3F): robust suppression for several minutes; also recorded: induced persistent suppression | neural activity of pre-LC^PDYN neurons, IG infusion of NaCl (pre-LC^PDYN neurons [3]; intragastric infusion, 0.15 M NaCl, 0.1 ml/min, FIGS. 4D and 4E): no inhibitory effect; also recorded: not affected | neural activity of pre-LC^PDYN neurons, oral NaCl consumption (pre-LC^PDYN neurons [3]; oral, 0.15 M NaCl, FIGS. 4C and 4E): drastically reduced
